Assay results reported in patent US8530646B2, “Oxazolidinone derivative having 7-membered hetero ring” (Research Foundation Itsuu Laboratory, priority 2007, dated 2013).

Assays:
Assay in all cases: MIC determination by CLSI standard method (broth dilution, Mueller Hinton Broth)
Type in all cases: cell-based
Settings in all cases: cation-adjusted Mueller Hinton Broth, inoculum about 5×10^5 CFU/mL, read-out: Minimal inhibitory concentration (MIC)
[1] = tested on: VRE (vancomycin resistance enterococcus)
Method: (§1) The compounds of the invention were tested for antimicrobial activity.
(§2) Minimal inhibitory concentration (MIC: μg/ml) against different strains of bacteria was determined according to the standard method recommended by CLSI (clinical and laboratory standards institute). Samples were prepared by dissolving a test compound solution into DMSO (1280 μg/mL), followed by two fold dilution with DMSO. The sample was added to a bacteria suspension at the concentration of 5%, and MIC was determined. Mueller Hinton Broth was adjusted for cation concentration and used as a culture media. The inoculation concentration was about 5×10^5 CFU/mL.

[2] = tested on: PRSP (penicillin resistant Streptococcus pneumoniae)
Method: as §1, §2

[3] = tested on: VISA (vancomycin-intermediate Staphylococcus aureus)
Method: as §1, §2

[4] = tested on: MRSA (methicillin-resistant Staphylococcus aureus)
Method: as §1, §2

Measured: MIC

CC(=S)NC[C@H]1CN(c2cc(F)c(N3CCON(C(=O)c4ccccc4O)CC3)c(F)c2)C(=O)O1 [Example B38]
≤ 1 µg/mL: all assays above

COC(=S)NC[C@H]1CN(c2ccc(N3CCNN(C(=O)Cn4cc(Cl)cn4)CC3)c(F)c2)C(=O)O1 [Example A91]
≤ 1 µg/mL: all assays above
